Assay results published in US20260258084A1, “New Peptides as Selective IL-23 Receptor Antagonists” (Sanofi, priority 2022, published 2026).
Starred links: 1 amine or outer side, 2 acyl side, 3 side chain; linkers in the order of their positions; H or OH if unused. Positions of bridges follow the written chain, without caps; N, C: chain ends. Non-standard residues stand in square brackets, D forms with d. Residues, ends and D or L forms follow the SMILES beside them. *: point of attachment. X5 = CN(C(=O)CCC(=O)[*:3])[C@@H](CS[*:2])C(=O)[*:1]; X6 = O=C(CCC(=O)[*:3])N[C@@H](CS[*:2])C(=O)[*:1]; Trp(7-Me) = Cc1cccc2c(C[C@H](N)C(=O)O)c[nH]c12; X1 = O=C(CCCCN[*:3])N[C@@H](CS[*:2])C(=O)[*:1]; αMeLys(Me2) = CN(C)CCCC[C@](C)(N)C(=O)O; 2Nal = N[C@@H](Cc1ccc2ccccc2c1)C(=O)O; d2Nal = N[C@H](Cc1ccc2ccccc2c1)C(=O)O; 3Pal = N[C@@H](Cc1cccnc1)C(=O)O; Lys(Me) = CNCCCC[C@H](N)C(=O)O; αMeL = CC(C)C[C@](C)(N)C(=O)O; Suc = O=C(CCC(=O)[*:2])[*:1]; Thp = NC1(C(=O)O)CCOCC1; Me2NCH2CH2 = CN(C)CC*; Aib = CC(C)(N)C(=O)O; Ava = NCCCCC(=O)O; Sar = CNCC(=O)O

Experiments:
Pancreatin = assay: Protease stability in simulated intestinal fluid (Pancreatin-SIF, FaSSIF); assay type: in vitro ADME; details: 1 μM peptide, 37° C.; for remaining at 1 h, 1 µM: 60 min, read-out: FaSSIF 60 (min), remaining percent of peptide; for remaining at 2 h, 1 µM: 120 min, read-out: FaSSIF 120 (min), remaining percent of peptide; for remaining at 4 h, 1 µM: 240 min, read-out: FaSSIF 240 (min), remaining percent of peptide
Method in brief: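 LC-MS/MS peak areas at 0, 60, 120 and 240 min, normalised to time 0 as 100%, give percent remaining. Reactions used 1 μM final peptide at 37° C in pancreatin-SIF (1 mg pancreatin in 10 mL SIF concentrate) and were stopped with ethanol containing 0.1% HCOOH.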

[1] = molecular target: T1, human interleukin-23 receptor (recombinant human IL-23R-Fc chimera) (Homo sapiens, UniProt Q5VWK5); assay: Human ELISA IL23/IL23R (assay for specific human IL23R antagonists); assay type: binding; details: Table 10; read-out: Human ELISA IL23/IL23R IC50
T1 construct: Fc (IgG Fc fusion)
Method in brief: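 Competition format: peptide dilutions compete for IL23R-Fc chimera (0.1 μg/ml final, 60 min, room temperature) binding to immobilized human IL23 coated at […] overnight at 4 °C. Read-out is fluorogenic HRP signal from goat anti-hu-IgG1 detecting captured receptor.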

Pepsin = test system: T2, Pepsin; assay: Protease stability in simulated gastric fluid (Pepsin-SGF, FaSSGF); assay type: in vitro ADME; details: simulated gastric fluid with pepsin (Pepsin-SGF), 60 min, 1 μM peptide, 37° C., read-out: FaSSGF 60 (min), remaining percent of peptide
T2 construct: purchased Merck Millipore
Method in brief: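 LCMS/MS peak areas, normalised to the time-0 sample as 100%, give percent remaining. Conditions: 37° C incubation of 1 μM final peptide in simulated gastric fluid with pepsin; ethanol/0.1% HCOOH quench at 0, 60, 120, 240 min.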

[2] = test system: IL-23 induced STAT3 signaling in HEK-Blue™ IL-23 cells; assay: IL-23 induced STAT3 signaling in HEK-Blue IL-23 cells (SEAP reporter); assay type: cell-based; details: human IL23 0.25 ng/ml, read-out: pSTAT3
Method in brief: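 Secreted SEAP, read at OD 620-655 nm after 45 min QUANTI-Blue development, reports STAT3 activation. Beforehand, cells were exposed to peptide dilutions for 60 min at 37 °C and then to 0.25 ng/ml final human IL-23 overnight, at 10,000 cells/well.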

Row | Compound | remaining at 1 h, 1 µM (Pancreatin) [%] | remaining at 2 h, 1 µM (Pancreatin) [%] | remaining at 4 h, 1 µM (Pancreatin) [%] | IC50 [1] [nM] | remaining at 1 h, 1 µM (Pepsin) [%] | IC50 [2] [nM]
1 | CC(=O)NCCCC[C@@H]1NC(=O)[C@H](Cc2c[nH]c3c(C)cccc23)NC(=O)[C@H]([C@@H](C)O)NC(=O)[C@H](CC(N)=O)NC(=O)[C@@H]2CSSC[C@H](NC1=O)C(=O)N[C@@H](Cc1ccc(OCCN(C)C)cc1)C(=O)N[C@@H](Cc1ccc3ccccc3c1)C(=O)N[C@@](C)(CC(C)C)C(=O)N[C@H](C(=O)N[C@@H](CC(N)=O)C(=O)N[C@@H](Cc1cccnc1)C(=O)N(C)CC(N)=O)CCCCNC(=O)CCC(=O)N2 [compound 103] (CNT[Trp(7-Me)]K(Ac)CY(Me2NCH2CH2)[2Nal][αMeL]KN[3Pal][Sar]-NH2; disulfide 1-6; linker N-10 via Suc) | 75 | 73 | 67 | 0.56 | 89 | 0.11
2 | CC(=O)N[C@H]1CCCCNC(=O)[C@@H]2CSSC[C@H](NC(=O)[C@H](CC(C)C)NC(=O)[C@H](Cc3c[nH]c4c(C)cccc34)NC1=O)C(=O)N[C@@H](Cc1ccc(OCCN(C)C)cc1)C(=O)N[C@@H](Cc1ccc3ccccc3c1)C(=O)N[C@@](C)(CC(C)C)C(=O)N[C@H](C(=O)N[C@@H](C)C(=O)N[C@@H](Cc1cccnc1)C(=O)N(C)CC(N)=O)CCCCN(C)C(=O)CCC(=O)N2C [compound 70] (Ac-K[Trp(7-Me)]LCY(Me2NCH2CH2)[2Nal][αMeL][Lys(Me)]A[3Pal][Sar]-NH2; linker 1-4-8 via X5) | 94 | 90 | 87 | 2.07 | 78 | 3.94
3 | CC(=O)NCCCC[C@@H]1NC(=O)[C@H](Cc2c[nH]c3c(C)cccc23)NC(=O)[C@@H](NC(C)=O)CCCCNC(=O)[C@@H]2CSSC[C@H](NC1=O)C(=O)N[C@@H](Cc1ccc(OCCN(C)C)cc1)C(=O)N[C@H](Cc1ccc3ccccc3c1)C(=O)N[C@@](C)(CCCCN(C)C)C(=O)N[C@H](C(=O)N[C@@H](CC(N)=O)C(=O)N[C@@H](Cc1cccnc1)C(=O)N(C)CC(N)=O)CCC(=O)NCCCCC(=O)N2 [compound 149] (Ac-K[Trp(7-Me)]K(Ac)CY(Me2NCH2CH2)[d2Nal][αMeLys(Me2)]EN[3Pal][Sar]-NH2; linker 1-4-8 via X1) | 95 | 99 | 97 | 0.64 | 101 | 0.04
4 | C[C@@H](O)[C@@H]1NC(=O)[C@H](CC(N)=O)NC(=O)[C@@H]2CSSC[C@H](NC(=O)[C@H](CCC(N)=O)NC(=O)[C@H](Cc3c[nH]c4ccccc34)NC1=O)C(=O)N[C@@H](Cc1ccc(OCCN(C)C)cc1)C(=O)N[C@@H](Cc1ccc3ccccc3c1)C(=O)NC1(CCOCC1)C(=O)N[C@H](C(=O)N[C@@H](CC(N)=O)C(=O)N[C@@H](CC(N)=O)C(N)=O)CCC(=O)NCCCCC(=O)N2 [compound 26] ([Ava]CNTWQCY(Me2NCH2CH2)[2Nal][Thp]ENN-NH2; disulfide 2-7; lactam N-11) | 95 | 95 | 94 | 0.29 | 95 | 3.37
5 | CC(=O)N[C@H]1CCCCNC(=O)[C@@H]2CSSC[C@H](NC(=O)[C@H](CC(C)C)NC(=O)[C@H](Cc3c[nH]c4c(C)cccc34)NC1=O)C(=O)N[C@@H](Cc1ccc(OCCN(C)C)cc1)C(=O)N[C@@H](Cc1ccc3ccccc3c1)C(=O)N[C@@](C)(CC(C)C)C(=O)N[C@H](C(=O)N[C@@H](CC(N)=O)C(=O)N[C@@H](Cc1cccnc1)C(=O)N(C)CC(N)=O)CCCCNC(=O)CCC(=O)N2 [compound 158] (Ac-K[Trp(7-Me)]LCY(Me2NCH2CH2)[2Nal][αMeL]KN[3Pal][Sar]-NH2; linker 1-4-8 via X6) | 80 | 73 | 74 | 1.93 | 37 | 0.39
6 | CC(=O)NCCCC[C@@H]1NC(=O)[C@H](Cc2c[nH]c3c(C)cccc23)NC(=O)[C@@H](NC(C)=O)CCCCNC(=O)[C@@H]2CSSC[C@H](NC1=O)C(=O)N[C@@H](Cc1ccc(OCCN(C)C)cc1)C(=O)N[C@@H](Cc1ccc3ccccc3c1)C(=O)NC1(CCOCC1)C(=O)N[C@H](C(=O)N[C@@H](CC(N)=O)C(=O)N[C@@H](Cc1cccnc1)C(=O)N(C)CC(N)=O)CCCCNC(=O)CCC(=O)N2 [compound 105] (Ac-K[Trp(7-Me)]K(Ac)CY(Me2NCH2CH2)[2Nal][Thp]KN[3Pal][Sar]-NH2; linker 1-4-8 via X6) | 78 | 80 | 77 | 0.55 | 93 | 0.1
7 | Cc1cccc2c(C[C@@H]3NC(=O)[C@H]([C@@H](C)O)NC(=O)[C@H](CC(N)=O)NC(=O)[C@@H]4CSSC[C@H](NC(=O)[C@H](CCC(N)=O)NC3=O)C(=O)N[C@@H](Cc3ccc(OCCN(C)C)cc3)C(=O)N[C@@H](Cc3ccc5ccccc5c3)C(=O)NC(C)(C)C(=O)N[C@H](C(=O)N[C@@H](CO)C(=O)N[C@@H](Cc3c[nH]cn3)C(N)=O)CCC(=O)NCCCCC(=O)N4)c[nH]c12 [compound 43] ([Ava]CNT[Trp(7-Me)]QCY(Me2NCH2CH2)[2Nal][Aib]ESH-NH2; disulfide 2-7; lactam N-11) | 83 | 72 | 67 | 0.33 | 100 | 1.31
8 | CC(=O)N[C@H]1CCCCNC(=O)[C@@H]2CSSC[C@H](NC(=O)[C@H](CCC(N)=O)NC(=O)[C@H](Cc3c[nH]c4ccccc34)NC1=O)C(=O)N[C@@H](Cc1ccc(OCCN(C)C)cc1)C(=O)N[C@@H](Cc1ccc3ccccc3c1)C(=O)N[C@@](C)(CC(C)C)C(=O)N[C@H](C(=O)N[C@@H](CC(N)=O)C(=O)NCC(N)=O)CCC(=O)NCCCCC(=O)N2 [compound 31] (Ac-KWQCY(Me2NCH2CH2)[2Nal][αMeL]ENG-NH2; linker 1-4-8 via X1) | 83 | 72 | 55 | 0.36 | 99 | 5.23
9 | CC(=O)N[C@H]1CCCCNC(=O)[C@@H]2CSSC[C@H](NC(=O)[C@H](CC(C)C)NC(=O)[C@H](Cc3c[nH]c4c(C)cccc34)NC1=O)C(=O)N[C@@H](Cc1ccc(OCCN(C)C)cc1)C(=O)N[C@@H](Cc1ccc3ccccc3c1)C(=O)N[C@@](C)(CC(C)C)C(=O)N[C@H](C(=O)N[C@@H](CC(N)=O)C(=O)N[C@@H](Cc1cccnc1)C(=O)N(C)CC(N)=O)CCCCN(C)C(=O)CCC(=O)N2 [compound 68] (Ac-K[Trp(7-Me)]LCY(Me2NCH2CH2)[2Nal][αMeL][Lys(Me)]N[3Pal][Sar]-NH2; linker 1-4-8 via X6) | 91 | 91 | 86 | 1.48 | 39 | 2.69
10 | CC(=O)NCCCC[C@@H]1NC(=O)[C@H](Cc2c[nH]c3c(C)cccc23)NC(=O)[C@H]([C@@H](C)O)NC(=O)[C@H](CC(N)=O)NC(=O)[C@@H]2CSSC[C@H](NC1=O)C(=O)N[C@@H](Cc1ccc(OCCN(C)C)cc1)C(=O)N[C@@H](Cc1ccc3ccccc3c1)C(=O)NC(C)(C)C(=O)N[C@H](C(=O)N[C@@H](CC(N)=O)C(=O)N[C@@H](Cc1cccnc1)C(=O)N(C)CC(N)=O)CCC(=O)NCCCCC(=O)N2 [compound 64] ([Ava]CNT[Trp(7-Me)]K(Ac)CY(Me2NCH2CH2)[2Nal][Aib]EN[3Pal][Sar]-NH2; disulfide 2-7; lactam N-11) | 96 | 92 | 92 | 0.27 | 91 | 0.22
11 | CC[C@H](C)[C@H](NC(=O)[C@H](CC(N)=O)NC(=O)[C@H](CC(N)=O)NC(=O)[C@@H]1CCC(=O)NCCCCC(=O)N[C@H]2CSSC[C@H](NC(=O)[C@H](CCC(N)=O)NC(=O)[C@H](Cc3c[nH]c4ccccc34)NC(=O)[C@H]([C@@H](C)O)NC(=O)[C@H](CC(N)=O)NC2=O)C(=O)N[C@@H](Cc2ccc(OCCN(C)C)cc2)C(=O)N[C@@H](Cc2ccc3ccccc3c2)C(=O)NC(C)(C)C(=O)N1)C(N)=O [compound 57] ([Ava]CNTWQCY(Me2NCH2CH2)[2Nal][Aib]ENNI-NH2; disulfide 2-7; lactam N-11) | 95 | 80 | 52 | 0.23 | 61 | 5.5
